Experiments:
[1] = Stability test (1): one-month stability in an airtight container at 40° C.; type: physicochemical; conditions: potency by liquid chromatography
Procedure: The water-containing crystals and isopropyl alcohol and water-containing crystals of Compound (I) or a salt thereof obtained in Examples 5, 7 and 8(1) were tested.
The one-month stability of each test sample in an airtight container at 40° C. was evaluated.
The potency of each test sample was determined by liquid chromatography and the percentage residue of Compound (I) or a salt thereof was calculated.

[2] = Stability test of the crystal of Example 2 (conditions not stated); type: physicochemical
[3] = Stability test (2): 9-day stability in an airtight container at 70° C.; type: physicochemical; conditions: potency by liquid chromatography
Procedure: Four lots of the isopropyl alcohol and water-containing crystal of compound (I) as obtained in Example 8 (2) were used.
The 9-day stability of each test sample in an airtight container at 70° C. was determined. The potency of each test sample was determined by liquid chromatography and the percentage residue was calculated.

[4] = Urinary excretion after oral administration; type: in vivo; conditions: male, SD, rat, urine; rats fasted overnight, 20 mg/kg oral, suspended in 0.5% methylcellulose; disk plate diffusion, Bacillus subtilis ATCC 6633; read-out: Recovery in 24-hrs urine (%)
Procedure: (C) Urinary Excretion Test Method Male SD rats (6-7 weeks old) from JCL were used. The test compound was suspended in 0.5% methylcellulose solution. The rats were fasted overnight before administration of 20 mg/kg. The urine was collected in the time slots of 0-6 and 6-24 hours after oral administration and the urinary recovery was determined by the disk plate diffusion method using Bacillus subtilis ATCC 6633 as the test organism and sodium citrate agar (0.8% sodium citrate, 0.5% polypeptone, 0.3% beef extract, and 1.0% agar) as the test medium.

Row | Residue (%) [1] | Residue (%) [3] | SMILES | other results
1 |  | 99.2% | Nc1nc(/C(=N/O)C(=O)NC2C(=O)N3C(C(=O)O)=C(SCc4cn[nH]c4)CSC23)cs1 (stereo not drawn) [Example 35534OP] | 
2 |  | 98.7% | Nc1nc(/C(=N/O)C(=O)NC2C(=O)N3C(C(=O)O)=C(SCc4cn[nH]c4)CSC23)cs1 (stereo not drawn) [Example 35414OP] | 

The next lines start with the compound.

Row | SMILES | Residue (%) [1] | Residue (%) [3] | other results
3 | Nc1nc(/C(=N/O)C(=O)N[C@@H]2C(=O)N3C(C(=O)O)=C(SCc4cn[nH]c4)CS[C@H]23)cs1 [Example 8(1), 7β-[2-(2-aminothiazol-4-yl)-2-(Z)-(hydroxyimino)acetamido]-3-[(pyrazol-4-yl)methylthio]-3-cephem-4-carboxylic acid] | 98.5% |  | 
4 | Nc1nc(/C(=N/O)C(=O)N[C@@H]2C(=O)N3C(C(=O)O)=C(SCc4cn[nH]c4)CS[C@H]23)cs1 [Example 2, 7β-[2-(2-aminothiazol-4-yl)-2-(Z)-(hydroxyimino)acetamido]-3-[(pyrazol-4-yl)methylthio]-3-cephem-4-carboxylic acid] |  |  | stability in the stability test [2]: stable
5 | Nc1nc(/C(=N/O)C(=O)NC2C(=O)N3C(C(=O)O)=C(SCc4cn[nH]c4)CSC23)cs1 (stereo not drawn) [Example 35434OP] |  | 98.0% | 
6 | Nc1nc(/C(=N/O)C(=O)N[C@@H]2C(=O)N3C(C(=O)O)=C(SCc4cn[nH]c4)CS[C@H]23)cs1 [Example 7, 7β-[2-(2-aminothiazol-4-yl)-2-(Z)-(hydroxyimino)acetamido]-3-[(pyrazol-4-yl)methylthio]-3-cephem-4-carboxylic acid] | 99.2% |  | 
7 | Nc1nc(/C(=N/O)C(=O)NC2C(=O)N3C(C(=O)O)=C(SCc4cn[nH]c4)CSC23)cs1 (stereo not drawn) [Example 37914XP] |  | 98.0% | 
8 | Nc1nc(/C(=N/O)C(=O)N[C@@H]2C(=O)N3C(C(=O)O)=C(SCc4cn[nH]c4)CS[C@H]23)cs1 [Example 5, 7β-[2-(2-amino-thiazol-4-yl)-2-(Z)-(hydroxyimino)acetamido]-3-[(pyrazol-4-yl)methylthio]-3-cephem-4-carboxylic acid] | 98.2% |  | 
9 | Nc1nc(/C(=N/O)C(=O)N[C@@H]2C(=O)N3C(C(=O)O)=C(SCc4cn[nH]c4)CS[C@H]23)cs1 [Compound (I), 7β-[2-(2-aminothiazol-4-yl)-2-(Z)-(hydroxyimino)acetamido]-3-[(pyrazol-4-yl)methylthio]-3-cephem-4-carboxylic acid] |  |  | dose excreted [4]: 50%
